Measurements: PMC6639804 (The Biochemical journal, 2018)

Molecular target: T1, Cnx1E (Arabidopsis thaliana, UniProt Q39054)
T1 sequence (Q39054 1-452): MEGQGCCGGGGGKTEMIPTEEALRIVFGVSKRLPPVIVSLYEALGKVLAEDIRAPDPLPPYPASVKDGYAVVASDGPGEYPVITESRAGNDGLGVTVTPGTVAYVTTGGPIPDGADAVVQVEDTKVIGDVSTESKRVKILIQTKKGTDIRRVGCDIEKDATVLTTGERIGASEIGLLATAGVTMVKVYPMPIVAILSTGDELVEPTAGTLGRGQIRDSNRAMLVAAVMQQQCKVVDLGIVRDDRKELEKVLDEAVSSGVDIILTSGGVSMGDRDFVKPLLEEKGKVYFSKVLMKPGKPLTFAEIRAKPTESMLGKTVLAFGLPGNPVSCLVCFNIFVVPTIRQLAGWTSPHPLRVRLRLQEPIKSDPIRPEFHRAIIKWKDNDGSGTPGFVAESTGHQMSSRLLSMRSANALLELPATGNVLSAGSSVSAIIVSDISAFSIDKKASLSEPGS
Assay: co-purified ligand, FormA-based HPLC
Format: binding
Details: co-purified from E. coli RK5206, not added; phosphodiesterase I treated sample

binding stoichiometry: 0.0136 +/− 0.0048
SMILES: Nc1nc2c(c(=O)[nH]1)N[C@H]1C(S)=C(S)[C@@H](COP(=O)(O)OP(=O)(O)OC[C@H]3O[C@@H](n4cnc5c(N)ncnc54)[C@H](O)[C@@H]3O)O[C@H]1N2 [MPT-AMP]
